Counter-ions that a name gives are not always drawn.

In assay [1] the test system is human T24 bladder carcinoma cells. Put plainly: Inhibition of proliferation of T24 bladder carcinoma cells (methylene blue staining, 5 days). The class given is cell-based. As to conditions: T-24, 120 h, 5 days incubation, read-out: Inhibition of T24 cell growth IC50. The procedure:
The carcinoma cells (1000-1500) are transinoculated into 96-depression microlitre plates and incubated overnight under the conditions mentioned. The test substance is added in serial dilutions on day 1. The plates are incubated under the conditions mentioned for 5 days. During this period of time, the control cultures pass through at least 4 cell divisions. After the incubation, the cells are fixed with 3.3% (weight/volume=w/v) aqueous glutaraldehyde solution, washed with water and dyed with 0.05% (w/v) aqueous methylene blue solution. After washing, the dye is eluted with 3% (w/v) aqueous hydrochloric acid. Thereafter, the optical density (OD) per depression, which is directly proportional to the number of cells, is measured with a photometer (Titertek multiskan) at 665 nm. The IC50 values are calculated with a computer system using the formula [formula]
The IC50 values are defined as that concentration of active ingredient at which the number of cells per depression at the end of the incubation time is only 50% of the number of cells in the control cultures.
(§1) On measurement of the IC50 for inhibition of ornithine decarboxylase (by the abovementioned method of Seely and Pegg with ODC from rat liver (obtained by the method of Hayashi and Kameji, see above)) and of the IC50 for inhibition of proliferation of T24 bladder carcinoma cells as described above, the following IC50 values can be found with the particular compounds mentioned from the examples: […]

For assay [2], the target named is T1, ornithine decarboxylase (ODC) (Rattus norvegicus, UniProt P09057).
T1 construct: from tissue; host or cells: rat liver
T1 sequence (P09057 1-461): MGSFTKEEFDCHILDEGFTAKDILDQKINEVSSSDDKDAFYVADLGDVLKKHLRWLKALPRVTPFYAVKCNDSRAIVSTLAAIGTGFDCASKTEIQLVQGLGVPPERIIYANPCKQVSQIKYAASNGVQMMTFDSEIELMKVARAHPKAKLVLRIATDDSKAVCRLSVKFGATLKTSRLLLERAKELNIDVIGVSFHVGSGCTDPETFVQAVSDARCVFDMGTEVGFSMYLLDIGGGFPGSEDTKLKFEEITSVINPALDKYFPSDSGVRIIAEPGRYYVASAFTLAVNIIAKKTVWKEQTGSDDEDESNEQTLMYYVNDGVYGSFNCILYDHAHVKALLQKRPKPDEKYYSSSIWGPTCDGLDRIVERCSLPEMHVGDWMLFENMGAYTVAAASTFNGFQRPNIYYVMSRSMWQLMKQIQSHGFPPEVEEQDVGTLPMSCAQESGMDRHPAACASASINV
Put plainly: Inhibition of ornithine decarboxylase (method of Seely and Pegg, ODC from rat liver). It is filed as biochemical. Here is the method:
White-Tabor (editors): Methods in Enzymology, Volume 94: Polyamines, Academic Press, New York 1983. If ODC from rat liver is used in this test (isolation: Hayashi, S.-I. and Kameji, T., same volume, pages 154-158), IC50 values in the micromolar region, down to about 0.01 μM, preferably between about 0.01 and 10 μM, for example between about 0.02 and about 7.2 μM, are obtained for the compounds of the formula I.IC50 is the concentration of the inhibitor at which the ODC activity is 50% of that of a control without the inhibitor.
as §1

As to `NO[C@H]1CCC[C@H](N)C1` (relative stereo) [Example 3, trans-3-Aminooxy-cyclohexylamine dihydrochloride], in assay [1], the 50% inhibitory concentration (IC50) (in general, the concentration that gives 50% inhibition) came to 11000 nM.
Turning to `NC[C@@H]1C[C@@H]1CON` (relative stereo) [Example 10, cis-2-Aminooxymethyl-cyclopropylmethylamine dihydrochloride], the IC50 in assay [2] came to 470 nM.
Regarding `NO[C@H]1CC[C@H](N)CC1` [Example 1, trans-4-Aminooxy-cyclohexylamine dihydrochloride], the half-maximal inhibitory concentration (IC50) in assay [1] was determined as 7500 nM; in assay [2], 220 nM.
Compound `NOC[C@H]1C[C@@H](N)C1` [Example 6, cis-3-Aminooxymethyl-cyclobutylamine dihydrochlofide] came in with an IC50 in assay [2] of 83 nM.
As for `NOC[C@H]1C[C@H](N)C1` [Example 7, trans-3-Aminooxymethyl-cyclobutylamine dihydrochloride], the half-inhibitory concentration (IC50) in assay [1] came to 4900 nM; in assay [2], 23 nM.
For `NOCC1CC(N)C1` (stereo not shown) [Example 8, 3-Aminooxymethyl-cyclobutylamine dihydrochloride], the IC50 is 4150 nM in assay [1] and 20 nM in assay [2].
`NCC1CC(ON)C1` (stereo not shown) [Example 9, 3-Aminooxy-cyclobutylmethylamine dihydrochlofide]: inhibition in assay [2] was half-maximal at 53 nM (IC50).

Source of the values: patent US5516806A, “Ornithine decarboxylase inhibiting cyclic aminooxy compounds” (Ciba-Geigy Corporation, priority 1993, dated 1996).
